Test results published in patent publication US8003694B2, “Crystal of hydroxynorephedrin derivative hydrochloride ¼ hydrate” (Kissei Pharmaceutical Co., Ltd., priority 2005, dated 2011).

Key:
[1] = Solubility Test (shake flask at 37° C., HPLC); type: physicochemical; conditions: for solubility in The First Fluid: first fluid of disintegration test of Japanese Pharmacopoeia; for solubility in The First Fluid / solubility in water: shaken 125 strokes per minute, constant or maximum concentration over 0.5-20 hours
Experimental: Each crystal polymorph (0.4 g), which was prepared by the above method, was taken in 50 mL Erlenmeyer flask respectively, and to the mixture was added 20 mL of the mediums as defined below. The flask was shaken at 125 strokes per minute at 37° C. After 0.5, 1, 2 and 20 hours from the start of shaking, 1.5 mL of the suspension was filtered through a membrane filter (pore size: 0.2 μm). The concentration of the filtrate for each crystal polymorph was determined by HPLC method to determine the solubility. The concentration where the concentration became constant by the temporal measurements of the concentration was determined to be the solubility of each polymorph, and the results are shown in Table 1. […] In the cases of crystalline form F and amorphous form, since these samples were dissolved completely in each medium within 0.5 hours after the start of the test, additional samples were added appropriately to the test flasks at the point of 0.5 hours after the start and the solubility tests were continued. The mediums: water or the first fluid of disintegration test of Japanese Pharmacopoeia (hereinafter referred to as The First Fluid).

[2] = Chemical Stability Test (storage at 60° C. for 1 week, HPLC and appearance); type: physicochemical
Experimental: Crystalline form F obtained in Example 1 was stored at 60° C. for 1 week to investigate the chemical stability. As the chemical stability, the residual percentage of ethyl (−)-2-[4-[2-[[(1S,2R)-2-hydroxy-2-(4-hydroxyphenyl)-1-methylethyl]amino]ethyl]-2,5-dimethylphenoxy]-acetate was determined by HPLC, and the change in appearance was also observed.

Compound	solubility in The First Fluid ([1]; hydrochloride) [mg/mL]	solubility in water ([1]; hydrochloride) [mg/mL]	solubility in The First Fluid relative to crystalline forms A and B and amorphous form ([1]; The First Fluid)	solubility in The First Fluid ([1]; hydrate) [mg/mL]	solubility in water ([1]; hydrate) [mg/mL]	appearance ([2]; after 1 week at 60° C.)	residual percentage (chemical purity %) ([2]; after 1 week at 60° C.) [%]	appearance ([2]; at start)	residual percentage (chemical purity %) ([2]; at start) [%]	changes in chemical purity and appearance ([2]; stored at 60° C. for 1 week)
CCOC(=O)COc1cc(C)c(CCN[C@@H](C)[C@H](O)c2ccc(O)cc2)cc1C.Cl [crystal form A, ethyl (−)-2-[4-[2-[[(1S,2R)-2-hydroxy-2-(4-hydroxyphenyl)-1-methylethyl]amino]-ethyl]-2,5-dimethylphenoxy]acetate hydrochloride]	2.4	10.7								
CCOC(=O)COc1cc(C)c(CCN[C@@H](C)[C@H](O)c2ccc(O)cc2)cc1C.Cl [crystal form B, ethyl (−)-2-[4-[2-[[(1S,2R)-2-hydroxy-2-(4-hydroxyphenyl)-1-methylethyl]amino]-ethyl]-2,5-dimethylphenoxy]acetate hydrochloride]	2.9	12.5								
CCOC(=O)COc1cc(C)c(CCN[C@@H](C)[C@H](O)c2ccc(O)cc2)cc1C.Cl [crystal form F, ethyl (−)-2-[4-[2-[[(1S,2R)-2-hydroxy-2-(4-hydroxyphenyl)-1-methylethyl]amino]ethyl]-2,5-dimethylphenoxy]acetate hydrochloride ¼ hydrate]			about 5 times	11.8	24.3	white	98.1	white	98.1	no changes
CCOC(=O)COc1cc(C)c(CCN[C@@H](C)[C@H](O)c2ccc(O)cc2)cc1C.Cl [amorphous form, ethyl (−)-2-[4-[2-[[(1S,2R)-2-hydroxy-2-(4-hydroxyphenyl)-1-methylethyl]amino]ethyl]-2,5-dimethylphenoxy]acetate hydrochloride]	2.6	17.8								
